Data on ten compounds can be found in US20060148674A1, “Therapeutic composition” (priority 2004, published 2006).

In series [1] the test system is BT-549 breast cancer cell line. Description: drug resistance of breast cancer cell line. It is filed as cell-based. The conditions noted are these: BT-549 compared with MCF-7.
A further series deals with brain tubulin. Details: dose or concentration left out as unconfirmed. The following applies: cited from earlier work.
The target in the next series is T1, erythrocyte tubulin (Gallus gallus, UniProt P09207).
T1 construct: from tissue; host or cells: chicken erythrocytes
Further details: dose or concentration left out as unconfirmed. The conditions noted are these: cited from earlier work.

The target of another series is T2, alpha/beta II (Bos taurus, UniProt Q6B856).
T2 construct: from tissue; host or cells: bovine cerebra
The following applies: cited from earlier work.

The next series concerns the target alpha/beta IV. The following applies: cited from earlier work.
Another series addresses T3, alpha/beta III (Bos taurus, UniProt Q2T9S0).
T3 construct: from tissue; host or cells: bovine brain (cerebra)
The conditions noted are these: cited from earlier work.

The next series has as its target T4, thioredoxin reductase (Homo sapiens, UniProt Q16881).
T4 sequence (Q16881 1-499 isoform Q16881-5): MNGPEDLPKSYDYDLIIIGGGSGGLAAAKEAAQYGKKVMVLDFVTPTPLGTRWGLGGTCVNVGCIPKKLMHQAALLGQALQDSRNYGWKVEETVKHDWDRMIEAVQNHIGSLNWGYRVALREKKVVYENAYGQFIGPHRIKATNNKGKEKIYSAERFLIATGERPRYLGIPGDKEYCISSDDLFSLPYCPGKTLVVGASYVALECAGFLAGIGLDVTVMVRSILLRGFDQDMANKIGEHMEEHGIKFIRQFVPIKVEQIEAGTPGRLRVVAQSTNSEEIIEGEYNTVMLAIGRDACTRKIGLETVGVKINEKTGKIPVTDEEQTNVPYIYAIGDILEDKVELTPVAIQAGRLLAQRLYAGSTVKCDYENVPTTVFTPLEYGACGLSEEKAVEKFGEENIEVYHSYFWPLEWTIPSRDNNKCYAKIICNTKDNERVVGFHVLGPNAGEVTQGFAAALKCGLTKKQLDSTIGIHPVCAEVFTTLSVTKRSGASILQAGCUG
The conditions noted are these: cited from earlier work.

Series [2] concerns the target T5, thioredoxin reductase/thioredoxin (Homo sapiens, UniProt Q16881).
T5 sequence (Q16881 1-499 isoform Q16881-5): T4 sequence (Q16881 1-499 isoform Q16881-5)
The following applies: cited from earlier work.

For series [3] the following is noted: 2.5 mg/kg, mice; cited from earlier work.
Series [4] concerns the target T6, thioredoxin reductase and thioredoxin (Homo sapiens, UniProt P10599+Q16881).
T6 sequence (Q16881 151-649 limits assumed): T4 sequence (Q16881 1-499 isoform Q16881-5)
T6 sequence (P10599 1-105): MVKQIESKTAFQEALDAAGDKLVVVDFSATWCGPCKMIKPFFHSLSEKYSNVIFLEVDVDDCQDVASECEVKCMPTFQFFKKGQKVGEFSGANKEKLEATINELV
The following applies: cited from earlier work.

The subject of the next series is HL-60 leukemia. The following applies: scid mice; a number of the animals without tumor at day 45; cited from earlier work.
The subject of series [5] is human MCF-7 breast cancer. The following applies: MCF-7 tumor system, scid mice; cited from earlier work.
Series [6] relates to colon tumors of min mouse. The following applies: in the diet at 250 ppm, cited from earlier work.
The next series addresses alpha/beta III dimer (Bos taurus, UniProt Q2T9S0). The conditions noted are these: compared with alpha/beta II and alpha/beta IV dimers; cited from earlier work.

T1 sequence (P09207 whole entry): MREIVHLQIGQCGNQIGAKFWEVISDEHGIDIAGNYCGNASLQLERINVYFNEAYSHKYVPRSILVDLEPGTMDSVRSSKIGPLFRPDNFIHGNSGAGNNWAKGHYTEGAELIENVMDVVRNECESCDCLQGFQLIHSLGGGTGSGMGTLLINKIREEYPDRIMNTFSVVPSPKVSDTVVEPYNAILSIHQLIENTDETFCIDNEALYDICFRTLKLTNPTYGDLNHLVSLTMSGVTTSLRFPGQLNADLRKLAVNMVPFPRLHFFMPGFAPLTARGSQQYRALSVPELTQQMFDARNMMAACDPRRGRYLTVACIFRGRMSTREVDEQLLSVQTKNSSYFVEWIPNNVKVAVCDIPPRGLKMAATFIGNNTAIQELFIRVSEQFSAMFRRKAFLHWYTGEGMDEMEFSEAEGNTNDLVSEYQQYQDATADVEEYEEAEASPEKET
Chain of alpha/beta III dimer (Q2T9S0 whole entry): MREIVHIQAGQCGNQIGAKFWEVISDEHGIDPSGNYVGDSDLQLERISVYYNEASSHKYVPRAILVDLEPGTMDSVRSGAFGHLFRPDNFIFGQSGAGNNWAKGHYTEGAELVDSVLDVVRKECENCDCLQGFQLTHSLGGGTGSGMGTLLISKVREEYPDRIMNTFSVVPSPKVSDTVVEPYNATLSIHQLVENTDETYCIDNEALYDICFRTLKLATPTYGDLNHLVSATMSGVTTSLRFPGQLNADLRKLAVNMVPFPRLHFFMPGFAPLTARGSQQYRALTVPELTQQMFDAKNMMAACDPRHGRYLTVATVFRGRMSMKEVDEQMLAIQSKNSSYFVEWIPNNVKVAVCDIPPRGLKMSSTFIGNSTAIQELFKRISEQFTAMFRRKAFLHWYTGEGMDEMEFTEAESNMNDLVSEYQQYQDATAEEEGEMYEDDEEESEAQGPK
Chain of alpha/beta III dimer (P81947 whole entry partner, looked up): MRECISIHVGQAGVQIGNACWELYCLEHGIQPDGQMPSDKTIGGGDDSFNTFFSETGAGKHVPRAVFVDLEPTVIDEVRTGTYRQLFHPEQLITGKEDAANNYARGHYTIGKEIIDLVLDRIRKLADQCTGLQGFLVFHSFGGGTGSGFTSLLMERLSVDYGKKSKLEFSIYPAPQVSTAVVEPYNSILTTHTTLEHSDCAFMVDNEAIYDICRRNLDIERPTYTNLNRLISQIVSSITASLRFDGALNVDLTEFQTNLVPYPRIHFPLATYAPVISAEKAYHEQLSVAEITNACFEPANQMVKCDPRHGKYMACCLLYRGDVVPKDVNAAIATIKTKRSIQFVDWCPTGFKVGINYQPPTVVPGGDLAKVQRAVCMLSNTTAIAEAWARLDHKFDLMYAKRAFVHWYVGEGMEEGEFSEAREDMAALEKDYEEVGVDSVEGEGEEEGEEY
T3 sequence (Q2T9S0 whole entry): as the sequence (Q2T9S0 whole entry) above
T3 sequence (P81947 whole entry partner): as the sequence (P81947 whole entry partner, looked up) above
T2 sequence (Q6B856 whole entry): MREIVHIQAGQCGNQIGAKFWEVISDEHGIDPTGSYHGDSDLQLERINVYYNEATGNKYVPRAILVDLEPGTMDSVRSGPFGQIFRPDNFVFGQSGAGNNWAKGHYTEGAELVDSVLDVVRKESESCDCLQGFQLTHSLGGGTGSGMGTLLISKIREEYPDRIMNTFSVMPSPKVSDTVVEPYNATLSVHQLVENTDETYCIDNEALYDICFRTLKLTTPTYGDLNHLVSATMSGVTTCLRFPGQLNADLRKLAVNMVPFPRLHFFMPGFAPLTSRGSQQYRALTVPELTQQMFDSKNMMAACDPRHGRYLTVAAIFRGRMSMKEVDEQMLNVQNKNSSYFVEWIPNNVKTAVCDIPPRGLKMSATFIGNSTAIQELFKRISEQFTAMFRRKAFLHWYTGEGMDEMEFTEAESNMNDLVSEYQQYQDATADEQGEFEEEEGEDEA
T2 sequence (P81947 whole entry partner): as the sequence (P81947 whole entry partner, looked up) above

Turning to `CC[C@]1(O)C[C@@H]2CN(CCc3c([nH]c4ccccc34)[C@@](C(=O)OC)(c3cc4c(cc3OC)N(C)[C@H]3[C@@](O)(C(=O)OC)[C@H](OC(C)=O)[C@]5(CC)C=CCN6CC[C@]43[C@@H]65)C2)C1` [vinblastine], the “resistance of cell line to drug” value in [1] was “resistant”. The “brain tubulin aggregated into spirals” value with brain tubulin is recorded as “About 42%”. At erythrocyte tubulin, the “erythrocyte tubulin formed spirals” value was 74%.
Turning to `COc1cc(OC)c(Cl)c(-n2c(-c3ccccc3)cc(=O)c(C)c2-c2ccc(F)cc2)c1` [IKP-104], the “apparent dissociation constant for the high-affinity site (Kd1)” value at alpha/beta II was “lower than that of unfractionated tubulin”; on alpha/beta IV, “greater than those of unfractionated tubulin, alpha/beta II, or alpha/beta III”; on alpha/beta III it was “lower than that of unfractionated tubulin”.
In the case of `O=[N+]([O-])C(=C(Sc1ccccc1)Sc1ccccc1)C(Cl)=C(Cl)Cl` [NSC 665103], the “inhibition of thioredoxin reductase alone” value on thioredoxin reductase was “did not inhibit thioredoxin reductase alone”. Also, the “activity in the thioredoxin reductase/thioredoxin-dependent insulin assay” value in series [2] is “active”.
With `CCCCCCCC(=O)OC1C2C(CC1(C)C)C(=O)C13OC1C(=O)C1(CO1)C23C` (centres unmarked) [NSC 163027], the “inhibition of thioredoxin reductase alone” value on thioredoxin reductase is given as “did not inhibit thioredoxin reductase alone”. In addition, in series [2], the “activity in the thioredoxin reductase/thioredoxin-dependent insulin assay” value is “active”.
As to cryptophycin, the “resistance of cell line to drug” value in series [1] is recorded as “resistant”.
Turning to `CC1=C(CO)C2=C(C)C3(CC3)[C@@](C)(O)C(=O)C2=C1` [irofulven], in series [3], the tolerability entry was “tolerable”. Also, in series [4], the “inhibition of thioredoxin reductase and thioredoxin” value is “selectively inhibit both thioredoxin reductase and thioredoxin”.
On to `CCC(C)SSc1ncc[nH]1` (centres unmarked) [IV-2, 1-methylpropyl 2-imidazolyl disulfide], for which, in the series with HL-60 leukemia, the “antitumor activity against HL-60 leukemia” value was “showed antitumor activity”. Also, the tumor inhibition in series [5] was 98%. Further, the “size of remaining tumors” value in series [6] (p<0.001 compared to control) is listed as “significant reduction”. Besides, the “reduction of the number of tumors in the colon” value in series [6] (p=0.0160) is given as 70%.
As for `c1ccc(CSSc2ncc[nH]2)cc1` [DLK-36, benzyl-2-imidazolyl disulfide], the “antitumor activity against HL-60 leukemia” value in the series with HL-60 leukemia is given as “showed antitumor activity”. Further, the tumor inhibition in series [5] was 65%.
`Cc1cccc2c1c1ccc3c(c1n2C)C(=O)C=CC3=O` [NSC 645330]: at thioredoxin reductase, the “inhibition of thioredoxin reductase alone” value is recorded as “did not inhibit thioredoxin reductase alone”. In series [2], the “activity in the thioredoxin reductase/thioredoxin-dependent insulin assay” value is recorded as “active”.
Consider `CC(=O)O[C@H]1C(=O)[C@@]2(C)[C@H]([C@H](OC(=O)c3ccccc3)[C@]3(O)C[C@H](OC(=O)[C@H](O)[C@@H](NC(=O)c4ccccc4)c4ccccc4)C(C)=C1C3(C)C)[C@]1(OC(C)=O)CO[C@@H]1C[C@@H]2O` [paclitaxel], for which, in [1], the “resistance of cell line to drug” value was “resistant”. Further, the “interaction of alpha/beta III dimer with ligand” value at alpha/beta III dimer is recorded as “much less strongly”.
